Measured values: patent US4650801A, “Anti-cancer compositions for delivering 5-fluorouracil” (Taiho Pharmaceutical Company, Ltd., priority 1978, dated 1987)
Values joined by “and” are separate entries in the source; they are usually repeats but may differ in a detail not shown here. Identical values can stand only once. Like-named read-outs stand apart in the source and are kept apart here.

Legend:
AH 130 tumor = settings: rat, in vivo
Procedure: ^3H-FT- 207(300 μ Ci/Kg) with cytosine were suspended in 5% acasia solution and administered orally to AH 130 bearing rats through a stomach tube, each of 3 rats/group. […] The rat were sacrified at various periods, the tumors were removed and used for analysis. Tumor were homogenized in a equal volume of saline, 1.0 ml of each sample was suspended in 7 volumes of cold methanol and centrifuged at 3000 rpm for 10 min. The precipitate was washed twice with 2 volumes of cold methanol and the mixture was centrifuged. The supernatant was combined with first supernatant and dried under nitrogen. […] Samples were mixed with 10 ml of scintillator containing 4 g of 2,5-diphenyloxazole, 0.4 g of 1,4-bis-[2-(4-methyl-5-phenyloxazolyl)]benzene and 100 g of naphthalene per liter of solvent composed of dioxane: toluene: ethylcellosolve=15:3:2 (v/v/v), and the radio activity was measured with Aloka LSC 673 liquid scintillation spectrometor.

[1] = cited from earlier work
sarcoma 180 = assay: Anti-cancer effect on subcutaneously transplanted sarcoma 180 in mice; assay type: in vivo, mouse
Procedure: The anti-cancer compositions of this invention are tested in mice by the following methods to determine acute toxicity, anti-cancer effect and therapeutic index
Tissues of sarcoma 180, 2×10^6, are subcutaneously transplanted in the back of male mice of ICR strain (6 mice in each group). A 5-fluorouracil (a) and uracil derivative (b) in the proportions listed in Tables 1-16 are suspended in a 5% solution of gum arabic to prepare a suspension. Twenty-four hours after the transplantation and during the following seven consecutive days the suspension is orally given to the animal once every day. On the 10th day after the transplantation, the tumor is removed from the body and weighed to calculate the average weight (T) of the tumors in the group to which the composition has been given and the corresponding weight (C) in the control group to determine the ratio T/C.

[2] = oral anti-cancer agent; cited from earlier work

Nc1ccn([C@H]2C[C@H](O)[C@@H](CO)O2)c(=O)n1 [2'-Deoxycytidine]
Concentration of 5-FU in cancer tissues (AH 130 tumor; 60 min): 0 ng/mL
Concentration of 5-FU in cancer tissues (AH 130 tumor; 120 min): 0 ng/mL
Concentration of 5-FU in cancer tissues (AH 130 tumor; 240 min): 0 ng/mL
Concentration of 5-FU in cancer tissues (AH 130 tumor; 480 min): 0 ng/mL

O=c1[nH]c(=O)n(C2CCCO2)cc1F (stereo not drawn) [Compound 5, 1-(2-Tetrahydrofuryl)-5-fluorouracil]
conversion to 5-fluorouracil in vivo [1]: slowly converted to 5-fluorouracil in vivo
ED50 (sarcoma 180; (b) = 1(2-Tetrahydrofuryl)uracil, (b)/(a) mol ratio 1): 99 mg/kg
ED50 (sarcoma 180; (b) = 1(2-Tetrahydrofuryl)uracil, (b)/(a) mol ratio 2): 38 mg/kg
ED50 (sarcoma 180; (b) = 1(2-Tetrahydrofuryl)uracil, (b)/(a) mol ratio 10): 34 mg/kg
ED50 (sarcoma 180; (b) = 1Acetyluracil, (b)/(a) mol ratio 1): 49 mg/kg
ED50 (sarcoma 180; (b) = 1Acetyluracil, (b)/(a) mol ratio 2): 31 mg/kg
ED50 (sarcoma 180; (b) = 1Acetyluracil, (b)/(a) mol ratio 5): 16 mg/kg
ED50 (sarcoma 180; (b) = 1Cyclohexylcarbamoyluracil, (b)/(a) mol ratio 0.5): 113 mg/kg
ED50 (sarcoma 180; (b) = 1Cyclohexylcarbamoyluracil, (b)/(a) mol ratio 2): 55 mg/kg
ED50 (sarcoma 180; (b) = 1Cyclohexylcarbamoyluracil, (b)/(a) mol ratio 5): 36 mg/kg
ED50 (sarcoma 180; (b) = 1n-Hexylcarbamoyluracil, (b)/(a) mol ratio 0.5): 112 mg/kg
ED50 (sarcoma 180; (b) = 1n-Hexylcarbamoyluracil, (b)/(a) mol ratio 2): 52 mg/kg
ED50 (sarcoma 180; (b) = 1n-Hexylcarbamoyluracil, (b)/(a) mol ratio 10): 43 mg/kg
ED50 (sarcoma 180; (b) = 2'-Deoxycytidine, (b)/(a) mol ratio 1): 102 mg/kg
ED50 (sarcoma 180; (b) = 2'-Deoxycytidine, (b)/(a) mol ratio 2): 69 mg/kg
ED50 (sarcoma 180; (b) = 2'-Deoxycytidine, (b)/(a) mol ratio 20): 39 mg/kg
ED50 (sarcoma 180; (b) = 2'-Deoxyuridine, (b)/(a) mol ratio 0.5): 82 mg/kg
ED50 (sarcoma 180; (b) = 2'-Deoxyuridine, (b)/(a) mol ratio 2): 37 mg/kg
ED50 (sarcoma 180; (b) = 2'-Deoxyuridine, (b)/(a) mol ratio 10): 28 mg/kg
ED50 (sarcoma 180; (b) = 3Benzoyluracil, (b)/(a) mol ratio 1): 98 mg/kg
ED50 (sarcoma 180; (b) = 3Benzoyluracil, (b)/(a) mol ratio 2): 37 mg/kg
ED50 (sarcoma 180; (b) = 3Benzoyluracil, (b)/(a) mol ratio 10): 30 mg/kg
ED50 (sarcoma 180; (b) = 5Bromo-2'-deoxyuridine, (b)/(a) mol ratio 1): 54 mg/kg
ED50 (sarcoma 180; (b) = 5Bromo-2'-deoxyuridine, (b)/(a) mol ratio 2): 24 mg/kg
ED50 (sarcoma 180; (b) = 5Bromo-2'-deoxyuridine, (b)/(a) mol ratio 10): 17 mg/kg
ED50 (sarcoma 180; (b) = 5Bromouracil, (b)/(a) mol ratio 1): 55 mg/kg
ED50 (sarcoma 180; (b) = 5Bromouracil, (b)/(a) mol ratio 2): 26 mg/kg
ED50 (sarcoma 180; (b) = 5Bromouracil, (b)/(a) mol ratio 10): 23 mg/kg
ED50 (sarcoma 180; (b) = 5Iodouracil, (b)/(a) mol ratio 1): 32 mg/kg
ED50 (sarcoma 180; (b) = 5Iodouracil, (b)/(a) mol ratio 2): 17 mg/kg
ED50 (sarcoma 180; (b) = 5Iodouracil, (b)/(a) mol ratio 5): 12 mg/kg
ED50 (sarcoma 180; (b) = Cytidine, (b)/(a) mol ratio 1): 98 mg/kg
ED50 (sarcoma 180; (b) = Cytidine, (b)/(a) mol ratio 2): 70 mg/kg
ED50 (sarcoma 180; (b) = Cytidine, (b)/(a) mol ratio 20): 28 mg/kg
ED50 (sarcoma 180; (b) = Cytosine, (b)/(a) mol ratio 1): 108 mg/kg
ED50 (sarcoma 180; (b) = Cytosine, (b)/(a) mol ratio 2): 66 mg/kg
ED50 (sarcoma 180; (b) = Cytosine, (b)/(a) mol ratio 20): 27 mg/kg
ED50 (sarcoma 180; (b) = Orotic acid, (b)/(a) mol ratio 1): 112 mg/kg
ED50 (sarcoma 180; (b) = Orotic acid, (b)/(a) mol ratio 2): 72 mg/kg
ED50 (sarcoma 180; (b) = Orotic acid, (b)/(a) mol ratio 20): 59 mg/kg
ED50 (sarcoma 180; (b) = Thymidine, (b)/(a) mol ratio 2): 94 mg/kg
ED50 (sarcoma 180; (b) = Thymidine, (b)/(a) mol ratio 5): 42 mg/kg
ED50 (sarcoma 180; (b) = Thymidine, (b)/(a) mol ratio 10): 40 mg/kg
ED50 (sarcoma 180; (b) = Thymine, (b)/(a) mol ratio 1): 42 mg/kg
ED50 (sarcoma 180; (b) = Thymine, (b)/(a) mol ratio 2): 28 mg/kg
ED50 (sarcoma 180; (b) = Thymine, (b)/(a) mol ratio 10): 14 mg/kg
ED50 (sarcoma 180; (b) = Uridine, (b)/(a) mol ratio 0.5): 129 mg/kg
ED50 (sarcoma 180; (b) = Uridine, (b)/(a) mol ratio 2): 55 mg/kg
ED50 (sarcoma 180; (b) = Uridine, (b)/(a) mol ratio 10): 36 mg/kg
ED50 (sarcoma 180; (b)/(a) mol ratio 0 (alone), oral, 50% cancer inhibition (T/C)): 140 mg/kg and 134 mg/kg
efficacy compared with 5-fluorouracil [2]: somewhat inferior to 5-fluorouracil in efficacy

Nc1cc[nH]c(=O)n1 [Cytosine]
Concentration of 5-FU in cancer tissues (AH 130 tumor; 60 min): 0 ng/mL
Concentration of 5-FU in cancer tissues (AH 130 tumor; 120 min): 0 ng/mL
Concentration of 5-FU in cancer tissues (AH 130 tumor; 240 min): 0 ng/mL
Concentration of 5-FU in cancer tissues (AH 130 tumor; 480 min): 0 ng/mL

O=c1c(F)cn(C2CCCO2)c(=O)n1C1CCCO1 (stereo not drawn) [FD-1]
Concentration of 5-FU in cancer tissues (AH 130 tumor; 60 min): 33 ng/mL
Concentration of 5-FU in cancer tissues (AH 130 tumor; 120 min): 24 ng/mL
Concentration of 5-FU in cancer tissues (AH 130 tumor; 240 min): 11 ng/mL
Concentration of 5-FU in cancer tissues (AH 130 tumor; 480 min): 8 ng/mL
